# Laboratory results published in article PMC5218480 (PLoS ONE, 2017).
# Tested on: MV-4-11 cells
# Assay: Gene expression microarray analysis (Affymetrix PrimeView) and GSEA
# Assay type: cell-based, human
# Parameters: RFU PODN (11730768_x_at) / Fold change /veh PODN (11730768_x_at) / RFU LINC00158 (11744669_a_at) / Fold change /veh LINC00158 (11744669_a_at) / RFU DUSP10 (11751237_a_at) / Fold change /veh DUSP10 (11751237_a_at) / RFU ID3 (11757404_x_at) / Fold change /veh ID3 (11757404_x_at) / RFU PLEKHG5 (11737974_s_at) / Fold change /veh PLEKHG5 (11737974_s_at) / RFU LRRC4B (11730491_at) / Fold change /veh LRRC4B (11730491_at) / RFU GIMAP4 (11747438_a_at) / Fold change /veh GIMAP4 (11747438_a_at) / RFU KRT8 (11758183_x_at) / Fold change /veh KRT8 (11758183_x_at) / RFU CNN1 (11734310_a_at) / Fold change /veh CNN1 (11734310_a_at) / RFU VPS37D (11726825_at) / Fold change /veh VPS37D (11726825_at) / RFU C10orf10 (11716522_x_at) / Fold change /veh C10orf10 (11716522_x_at) / RFU KIR2DL2 /// KIR2DL4 /// KIR2DL5A /// KIR2DL5B /// KIR2DS1 /// KIR2DS2 /// KIR2DS3 /// KIR2DS4 /// KIR3DL3 /// KIR3DL3 /// KIR3DS1 (11738374_at) / Fold change /veh KIR2DL2 /// KIR2DL4 /// KIR2DL5A /// KIR2DL5B /// KIR2DS1 /// KIR2DS2 /// KIR2DS3 /// KIR2DS4 /// KIR3DL3 /// KIR3DL3 /// KIR3DS1 (11738374_at) / RFU C1QL1 (11718748_at) / Fold change /veh C1QL1 (11718748_at) / RFU TMPRSS4 (11747572_a_at) / Fold change /veh TMPRSS4 (11747572_a_at) / RFU HAMP (11756126_x_at) / Fold change /veh HAMP (11756126_x_at) / RFU RNFT2 (11725882_a_at) / Fold change /veh RNFT2 (11725882_a_at) / RFU NR4A2 (11747474_a_at) / Fold change /veh NR4A2 (11747474_a_at) / RFU ABCC12 (11746883_a_at) / Fold change /veh ABCC12 (11746883_a_at) / RFU TMEM136 (11760407_x_at) / Fold change /veh TMEM136 (11760407_x_at) / RFU CLDN22 /// WWC2 (11732394_at) / Fold change /veh CLDN22 /// WWC2 (11732394_at) / RFU HLA-DPB1 (11760878_x_at) / Fold change /veh HLA-DPB1 (11760878_x_at) / RFU SPINT1 (11716480_a_at) / Fold change /veh SPINT1 (11716480_a_at) / RFU GAP43 (11754022_s_at) / Fold change /veh GAP43 (11754022_s_at) / RFU A4GNT (11735810_at) / Fold change /veh A4GNT (11735810_at) / RFU PRB3 (11715151_x_at) / Fold change /veh PRB3 (11715151_x_at) / RFU TUBB4B (11761932_at) / Fold change /veh TUBB4B (11761932_at) / RFU CAPN14 (11732068_a_at) / Fold change /veh CAPN14 (11732068_a_at) / RFU TMCC2 (11721928_a_at) / Fold change /veh TMCC2 (11721928_a_at) / RFU IRGQ (11745062_a_at) / Fold change /veh IRGQ (11745062_a_at) / RFU FAM174B (11720279_a_at) / Fold change /veh FAM174B (11720279_a_at) / RFU TMPRSS4 (11748680_a_at) / Fold change /veh TMPRSS4 (11748680_a_at) / RFU FAM212B (11763350_a_at) / Fold change /veh FAM212B (11763350_a_at) / RFU PLEKHG5 (11743358_a_at) / Fold change /veh PLEKHG5 (11743358_a_at) / RFU ZSCAN30 (11745921_a_at) / Fold change /veh ZSCAN30 (11745921_a_at) / RFU CMKLR1 (11741424_a_at) / Fold change /veh CMKLR1 (11741424_a_at) / RFU LOC101060620 /// MAPK8IP1 (11723275_at) / Fold change /veh LOC101060620 /// MAPK8IP1 (11723275_at) / RFU SPTSSB (11747773_x_at) / Fold change /veh SPTSSB (11747773_x_at) / RFU PRSS12 (11739890_at) / Fold change /veh PRSS12 (11739890_at) / RFU BIN1 (11741810_x_at) / Fold change /veh BIN1 (11741810_x_at) / RFU WNT11 (11732464_a_at) / Fold change /veh WNT11 (11732464_a_at) / RFU C10orf10 (11716521_a_at) / Fold change /veh C10orf10 (11716521_a_at) / RFU C5orf56 (11738089_at) / Fold change /veh C5orf56 (11738089_at) / RFU CYB561 (11721691_x_at) / Fold change /veh CYB561 (11721691_x_at) / RFU ANKRD19P (11752326_a_at) / Fold change /veh ANKRD19P (11752326_a_at) / RFU OR2T12 /// OR2T33 /// OR2T8 (11738714_s_at) / Fold change /veh OR2T12 /// OR2T33 /// OR2T8 (11738714_s_at) / RFU VCAN (11748164_a_at) / Fold change /veh VCAN (11748164_a_at) / RFU JSRP1 (11732532_at) / Fold change /veh JSRP1 (11732532_at) / RFU KRTAP10-11 (11738290_x_at) / Fold change /veh KRTAP10-11 (11738290_x_at) / RFU MYO3A (11730013_a_at) / Fold change /veh MYO3A (11730013_a_at) / RFU EBF3 (11725865_a_at) / Fold change /veh EBF3 (11725865_a_at) / RFU CAMK2N1 (11719241_x_at) / Fold change /veh CAMK2N1 (11719241_x_at) / RFU C5orf56 (11738088_a_at) / Fold change /veh C5orf56 (11738088_a_at) / RFU OLFML3 (11715873_a_at) / Fold change /veh OLFML3 (11715873_a_at) / RFU LOC100653217 /// NTM (11731650_a_at) / Fold change /veh LOC100653217 /// NTM (11731650_a_at) / RFU MAPK11 (11762145_a_at) / Fold change /veh MAPK11 (11762145_a_at) / RFU FIZ1 (11724087_x_at) / Fold change /veh FIZ1 (11724087_x_at) / RFU OASL (11726364_x_at) / Fold change /veh OASL (11726364_x_at) / RFU SOX15 (11748057_x_at) / Fold change /veh SOX15 (11748057_x_at) / RFU CD79A (11719716_a_at) / Fold change /veh CD79A (11719716_a_at) / RFU HIST1H1D (11736915_at) / Fold change /veh HIST1H1D (11736915_at) / RFU CASKIN2 (11723855_a_at) / Fold change /veh CASKIN2 (11723855_a_at) / RFU LOC730098 (11760151_x_at) / Fold change /veh LOC730098 (11760151_x_at) / RFU OR4N2 (11742367_at) / Fold change /veh OR4N2 (11742367_at) / RFU PRRT2 (11749266_a_at) / Fold change /veh PRRT2 (11749266_a_at) / RFU SNX32 (11753110_a_at) / Fold change /veh SNX32 (11753110_a_at) / RFU CDHR5 (11726645_a_at) / Fold change /veh CDHR5 (11726645_a_at) / RFU RCAN1 (11760418_a_at) / Fold change /veh RCAN1 (11760418_a_at) / RFU FAM167A (11723789_a_at) / Fold change /veh FAM167A (11723789_a_at) / RFU FAM26E (11764081_at) / Fold change /veh FAM26E (11764081_at) / RFU ISYNA1 (11749810_s_at) / Fold change /veh ISYNA1 (11749810_s_at) / RFU ACY1 (11761880_at) / Fold change /veh ACY1 (11761880_at) / RFU 11764098_at / Fold change /veh 11764098_at / RFU SAMD14 (11745864_x_at) / Fold change /veh SAMD14 (11745864_x_at) / RFU NPB (11741838_a_at) / Fold change /veh NPB (11741838_a_at) / RFU TMPRSS6 (11731388_a_at) / Fold change /veh TMPRSS6 (11731388_a_at) / RFU KRTAP10-2 (11738614_at) / Fold change /veh KRTAP10-2 (11738614_at) / RFU ARHGAP8 /// PRR5-ARHGAP8 (11727945_x_at) / Fold change /veh ARHGAP8 /// PRR5-ARHGAP8 (11727945_x_at) / RFU KRTAP5-7 /// NADSYN1 (11734609_at) / Fold change /veh KRTAP5-7 /// NADSYN1 (11734609_at) / RFU RASL12 (11751679_a_at) / Fold change /veh RASL12 (11751679_a_at) / RFU CDKN2B (11736163_a_at) / Fold change /veh CDKN2B (11736163_a_at) / RFU PRF1 (11729649_at) / Fold change /veh PRF1 (11729649_at) / RFU, ZNF638 /// ZNF638-IT1 / Fold change vs veh, ZNF638 /// ZNF638-IT1 / RFU, PANK3 / Fold change vs veh, PANK3 / RFU, SH3YL1 / Fold change vs veh, SH3YL1 / RFU, ZEB2 / Fold change vs veh, ZEB2 / RFU, NRIP1 / Fold change vs veh, NRIP1 / RFU, PTTG1IP / Fold change vs veh, PTTG1IP / RFU, CAPN2 / Fold change vs veh, CAPN2 / RFU, MED14 / Fold change vs veh, MED14 / RFU, SNORA58 / Fold change vs veh, SNORA58 / RFU, C1orf63 / Fold change vs veh, C1orf63 / RFU, LRRFIP1 / Fold change vs veh, LRRFIP1 / RFU, NDUFAF7 / Fold change vs veh, NDUFAF7 / RFU, SLC12A2 / Fold change vs veh, SLC12A2 / RFU, IBTK / Fold change vs veh, IBTK / RFU, ESF1 / Fold change vs veh, ESF1 / Fold change vs veh, TMEM50B / RFU, TAOK1 / Fold change vs veh, TAOK1 / RFU, ACBD3 / Fold change vs veh, ACBD3 / RFU, TMA16 / Fold change vs veh, TMA16 / RFU, RWDD3 / Fold change vs veh, RWDD3 / RFU, BCAT1 / Fold change vs veh, BCAT1 / RFU, EDEM3 / Fold change vs veh, EDEM3 / RFU, TMEM33 / Fold change vs veh, TMEM33 / RFU, WDR75 / Fold change vs veh, WDR75 / RFU, AHCTF1 / Fold change vs veh, AHCTF1 / RFU, TFRC / Fold change vs veh, TFRC / RFU, ZDHHC17 / Fold change vs veh, ZDHHC17 / RFU, NOM1 / Fold change vs veh, NOM1 / RFU, ARL8B / Fold change vs veh, ARL8B / RFU, ZBTB11 / Fold change vs veh, ZBTB11 / RFU, TAMM41 / Fold change vs veh, TAMM41 / RFU, KIAA1704 /// LOC100996395 / Fold change vs veh, KIAA1704 /// LOC100996395 / RFU, ING1 / Fold change vs veh, ING1 / RFU, TRMT61B / Fold change vs veh, TRMT61B / RFU, FUBP3 / Fold change vs veh, FUBP3 / RFU, TP53 / Fold change vs veh, TP53 / RFU, TNKS2 / Fold change vs veh, TNKS2 / RFU, ZFP14 / Fold change vs veh, ZFP14 / RFU, ACTR2 / Fold change vs veh, ACTR2 / RFU, PPP3R1 / Fold change vs veh, PPP3R1 / RFU, PIK3R1 / Fold change vs veh, PIK3R1 / RFU, HNRNPA1 / Fold change vs veh, HNRNPA1 / RFU, RNF170 / Fold change vs veh, RNF170 / RFU, ZNF28 / Fold change vs veh, ZNF28 / RFU, RNGTT / Fold change vs veh, RNGTT / RFU, OGT / Fold change vs veh, OGT / RFU, BRD1 / Fold change vs veh, BRD1 / RFU, MARS / Fold change vs veh, MARS / RFU, ZNF655 / Fold change vs veh, ZNF655 / RFU, FAHD1 / Fold change vs veh, FAHD1 / RFU, BDP1 / Fold change vs veh, BDP1 / RFU, LRRCC1 / Fold change vs veh, LRRCC1 / RFU, ARID1A / Fold change vs veh, ARID1A / RFU, ZNF146 / Fold change vs veh, ZNF146 / RFU, ZNF330 / Fold change vs veh, ZNF330 / RFU, GPN3 / Fold change vs veh, GPN3 / RFU, C9orf123 / Fold change vs veh, C9orf123 / RFU, N4BP2L2 / Fold change vs veh, N4BP2L2 / RFU, ARFIP1 / Fold change vs veh, ARFIP1 / RFU, FAM179B / Fold change vs veh, FAM179B / RFU, BCL10 / Fold change vs veh, BCL10 / RFU, UHRF1BP1L / Fold change vs veh, UHRF1BP1L / RFU, BET1 / Fold change vs veh, BET1 / RFU, CNOT2 / Fold change vs veh, CNOT2 / RFU, ZNF268 / Fold change vs veh, ZNF268 / Fold change vs veh, ZNF507 / RFU, DGCR2 / Fold change vs veh, DGCR2 / RFU, WDSUB1 / Fold change vs veh, WDSUB1 / Fold change vs veh, HSP90B1 /// MIR3652 / RFU, ADSS / Fold change vs veh, ADSS / RFU, GK / Fold change vs veh, GK / RFU, ZNF148 / Fold change vs veh, ZNF148 / RFU, TAF9 / Fold change vs veh, TAF9 / RFU, SLC1A5 / Fold change vs veh, SLC1A5 / RFU, SLMO2 / Fold change vs veh, SLMO2 / RFU, ABCC4 / Fold change vs veh, ABCC4 / RFU, LOC101060439 /// RAP1B / Fold change vs veh, LOC101060439 /// RAP1B / RFU, RFX7 / Fold change vs veh, RFX7 / RFU, GTPBP10 / Fold change vs veh, GTPBP10 / RFU, CNEP1R1 / Fold change vs veh, CNEP1R1 / RFU, BIVM-ERCC5 /// ERCC5 / Fold change vs veh, BIVM-ERCC5 /// ERCC5 / RFU, ILF3 / Fold change vs veh, ILF3 / RFU 11762660_at / Fold change /veh 11762660_at / RFU VCAN (11757783_s_at) / Fold change /veh VCAN (11757783_s_at) / RFU DDX43 (11728927_at) / Fold change /veh DDX43 (11728927_at) / RFU KRT8 (11758188_x_at) / Fold change /veh KRT8 (11758188_x_at) / RFU NKD1 (11759106_at) / Fold change /veh NKD1 (11759106_at) / RFU SRD5A1 (11742802_a_at) / Fold change /veh SRD5A1 (11742802_a_at) / RFU TPSAB1 /// TPSB2 (11721975_s_at) / Fold change /veh TPSAB1 /// TPSB2 (11721975_s_at) / RFU GSTM3 (11746129_a_at) / Fold change /veh GSTM3 (11746129_a_at) / RFU IL23R (11737362_x_at) / Fold change /veh IL23R (11737362_x_at) / RFU TMEM51 (11727254_a_at) / Fold change /veh TMEM51 (11727254_a_at) / RFU PIWIL2 (11732686_x_at) / Fold change /veh PIWIL2 (11732686_x_at) / RFU ORM1 (11744905_x_at) / Fold change /veh ORM1 (11744905_x_at) / RFU CCDC152 (11743942_at) / Fold change /veh CCDC152 (11743942_at) / RFU ECM1 (11717891_a_at) / Fold change /veh ECM1 (11717891_a_at) / RFU IL23R (11748794_a_at) / Fold change /veh IL23R (11748794_a_at) / RFU TNFAIP8L3 (11732012_x_at) / Fold change /veh TNFAIP8L3 (11732012_x_at) / RFU MBOAT4 (11741988_at) / Fold change /veh MBOAT4 (11741988_at) / RFU 11764193_at / Fold change /veh 11764193_at / RFU TMEM53 (11763286_at) / Fold change /veh TMEM53 (11763286_at) / RFU MAGEB2 (11727129_at) / Fold change /veh MAGEB2 (11727129_at) / RFU TMEM200A (11744735_a_at) / Fold change /veh TMEM200A (11744735_a_at) / RFU CCDC152 (11751479_a_at) / Fold change /veh CCDC152 (11751479_a_at) / RFU FAM211A (11726209_a_at) / Fold change /veh FAM211A (11726209_a_at) / RFU RGS16 (11746705_a_at) / Fold change /veh RGS16 (11746705_a_at) / RFU VCAN (11755009_s_at) / Fold change /veh VCAN (11755009_s_at) / RFU RHOB (11743442_s_at) / Fold change /veh RHOB (11743442_s_at) / RFU RGS16 (11720943_a_at) / Fold change /veh RGS16 (11720943_a_at) / RFU RGS16 (11720944_at) / Fold change /veh RGS16 (11720944_at) / RFU, VPS4B / Fold change vs veh, VPS4B / RFU, CREB1 / Fold change vs veh, CREB1 / RFU, DNAJC13 / Fold change vs veh, DNAJC13 / RFU, GNAQ / Fold change vs veh, GNAQ / RFU, CDK5R1 / Fold change vs veh, CDK5R1 / RFU, ZRANB3 / Fold change vs veh, ZRANB3 / RFU, CUL4A / Fold change vs veh, CUL4A / RFU, CCNY / Fold change vs veh, CCNY / RFU, UFL1 / Fold change vs veh, UFL1 / RFU, COG3 / Fold change vs veh, COG3 / RFU, DIAPH2 / Fold change vs veh, DIAPH2 / RFU, SKA2 / Fold change vs veh, SKA2 / RFU, AFF3 / Fold change vs veh, AFF3 / RFU, LMF1 / Fold change vs veh, LMF1 / RFU, IPO11 / Fold change vs veh, IPO11 / RFU, DFFB / Fold change vs veh, DFFB / RFU, FOXP1 / Fold change vs veh, FOXP1 / RFU, CARD8 / Fold change vs veh, CARD8 / RFU, STRN3 / Fold change vs veh, STRN3 / RFU, ADK / Fold change vs veh, ADK / RFU, RASSF2 / Fold change vs veh, RASSF2 / RFU, WIPF1 / Fold change vs veh, WIPF1 / RFU, LARP1B / Fold change vs veh, LARP1B / RFU, RASA1 / Fold change vs veh, RASA1 / RFU, RB1 / Fold change vs veh, RB1 / RFU, PPFIA1 / Fold change vs veh, PPFIA1 / RFU, MAT2A / Fold change vs veh, MAT2A / RFU, CCT5 / Fold change vs veh, CCT5 / RFU, WDR92 / Fold change vs veh, WDR92 / RFU, CUX1 / Fold change vs veh, CUX1 / RFU, TTC7A / Fold change vs veh, TTC7A / RFU, TMEM135 / Fold change vs veh, TMEM135 / RFU, DEPTOR / Fold change vs veh, DEPTOR / RFU, CPM / Fold change vs veh, CPM / RFU, DNAJB6 / Fold change vs veh, DNAJB6 / RFU, CACNA2D3 / Fold change vs veh, CACNA2D3 / RFU, DTX4 / Fold change vs veh, DTX4 / RFU, TFCP2 / Fold change vs veh, TFCP2 / RFU, GMCL1 /// GMCL1P1 / Fold change vs veh, GMCL1 /// GMCL1P1 / RFU, AEBP2 / Fold change vs veh, AEBP2 / RFU, SNHG1 /// SNORD22 /// SNORD25 /// SNORD26 /// SNORD27 /// SNORD28 /// SNORD29 /// SNORD31 / Fold change vs veh, SNHG1 /// SNORD22 /// SNORD25 /// SNORD26 /// SNORD27 /// SNORD28 /// SNORD29 /// SNORD31 / Fold change (Aza/veh), C12orf56 (ProbeSet 11735607_a_at) / Fold change (ACY-1035/veh), C12orf56 (ProbeSet 11735607_a_at) / Fold change (Aza/veh), FGFR1OP (ProbeSet 11751329_s_at) / Fold change (ACY-1035/veh), FGFR1OP (ProbeSet 11751329_s_at) / Fold change (Aza/veh), VPS36 (ProbeSet 11739960_a_at) / Fold change (ACY-1035/veh), VPS36 (ProbeSet 11739960_a_at) / RFU SYPL1 (11715823_x_at) / Fold change /veh SYPL1 (11715823_x_at) / RFU IGFBP7 (11715501_s_at) / Fold change /veh IGFBP7 (11715501_s_at) / RFU REEP3 (11722064_at) / Fold change /veh REEP3 (11722064_at) / RFU IGLL1 (11728026_x_at) / Fold change /veh IGLL1 (11728026_x_at): dose or concentration left out as unconfirmed
# Conditions: ProbeSet 11749645_x_at; LIST B
structure (smiles),measurement,value
Nc1ccc(-c2cccs2)cc1NC(=O)c1ccc2c(c1)cc(C1CC1)n2CCN1CCOCC1 [ACY-1035],"Fold change vs veh, ZNF268",0.87
